For one series, the target named is CYP3A4 (Homo sapiens (Human), UniProt P08684). The series is described as follows: CYP 450 enzyme inhibition test (mixed human liver microsomes, LC-MS/MS). Particulars: read-out: CYP3A4-T IC50; mixed human liver microsomes, NADPH, CYP3A4-T probe substrate. (Liver microsomes are vesicles of endoplasmic reticulum, rich in cytochrome P450 enzymes.)
The test system of the next series is NCI-H1417 cells. In words: In vitro cell proliferation detection (CellTiter-Glo, 7 days). Type of series: cell-based. Particulars: Homo sapiens, 168 h; NCI-H1417 cells, 7 days, CellTiter-Glo; read-out: NCI-H1417 proliferation inhibition IC50. On the technique in general: In ATP-based viability assays light output follows the ATP content of the culture.
Series [1] addresses voltage-gated potassium ion channel hERG (Homo sapiens (Human), UniProt Q12809). In words: hERG inhibition test (manual patch-clamp). The settings on record: read-out: hERG IC50; manual patch-clamp.
In the next series the target is LSD1 (Homo sapiens (Human), UniProt O60341). The series is described as follows: LSD1 enzyme activity detection (HTRF). The series is classed as biochemical. The settings on record: HTRF, H3K4me1 substrate; read-out: Inhibition of enzymatic activity of LSD1 IC50. A general note: In TR-FRET formats the signal depends on donor and acceptor labels being close together.

Each structure is given as a SMILES string. Structures can show the parent of a compound that is named as a salt.

Chain of CYP3A4 (P08684 whole entry): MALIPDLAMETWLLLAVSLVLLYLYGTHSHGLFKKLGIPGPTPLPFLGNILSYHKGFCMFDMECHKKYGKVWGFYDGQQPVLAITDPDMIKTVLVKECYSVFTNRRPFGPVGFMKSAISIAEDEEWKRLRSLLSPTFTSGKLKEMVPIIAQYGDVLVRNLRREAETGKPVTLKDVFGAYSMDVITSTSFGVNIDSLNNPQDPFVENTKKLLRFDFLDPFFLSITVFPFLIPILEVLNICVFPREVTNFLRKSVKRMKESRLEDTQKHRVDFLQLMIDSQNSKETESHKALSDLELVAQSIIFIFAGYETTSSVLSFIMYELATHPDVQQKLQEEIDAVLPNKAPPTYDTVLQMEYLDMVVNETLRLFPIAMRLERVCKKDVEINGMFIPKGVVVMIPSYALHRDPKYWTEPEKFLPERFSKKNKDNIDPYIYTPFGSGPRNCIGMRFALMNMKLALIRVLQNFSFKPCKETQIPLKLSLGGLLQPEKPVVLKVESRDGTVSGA
Chain of voltage-gated potassium ion channel hERG (Q12809 whole entry): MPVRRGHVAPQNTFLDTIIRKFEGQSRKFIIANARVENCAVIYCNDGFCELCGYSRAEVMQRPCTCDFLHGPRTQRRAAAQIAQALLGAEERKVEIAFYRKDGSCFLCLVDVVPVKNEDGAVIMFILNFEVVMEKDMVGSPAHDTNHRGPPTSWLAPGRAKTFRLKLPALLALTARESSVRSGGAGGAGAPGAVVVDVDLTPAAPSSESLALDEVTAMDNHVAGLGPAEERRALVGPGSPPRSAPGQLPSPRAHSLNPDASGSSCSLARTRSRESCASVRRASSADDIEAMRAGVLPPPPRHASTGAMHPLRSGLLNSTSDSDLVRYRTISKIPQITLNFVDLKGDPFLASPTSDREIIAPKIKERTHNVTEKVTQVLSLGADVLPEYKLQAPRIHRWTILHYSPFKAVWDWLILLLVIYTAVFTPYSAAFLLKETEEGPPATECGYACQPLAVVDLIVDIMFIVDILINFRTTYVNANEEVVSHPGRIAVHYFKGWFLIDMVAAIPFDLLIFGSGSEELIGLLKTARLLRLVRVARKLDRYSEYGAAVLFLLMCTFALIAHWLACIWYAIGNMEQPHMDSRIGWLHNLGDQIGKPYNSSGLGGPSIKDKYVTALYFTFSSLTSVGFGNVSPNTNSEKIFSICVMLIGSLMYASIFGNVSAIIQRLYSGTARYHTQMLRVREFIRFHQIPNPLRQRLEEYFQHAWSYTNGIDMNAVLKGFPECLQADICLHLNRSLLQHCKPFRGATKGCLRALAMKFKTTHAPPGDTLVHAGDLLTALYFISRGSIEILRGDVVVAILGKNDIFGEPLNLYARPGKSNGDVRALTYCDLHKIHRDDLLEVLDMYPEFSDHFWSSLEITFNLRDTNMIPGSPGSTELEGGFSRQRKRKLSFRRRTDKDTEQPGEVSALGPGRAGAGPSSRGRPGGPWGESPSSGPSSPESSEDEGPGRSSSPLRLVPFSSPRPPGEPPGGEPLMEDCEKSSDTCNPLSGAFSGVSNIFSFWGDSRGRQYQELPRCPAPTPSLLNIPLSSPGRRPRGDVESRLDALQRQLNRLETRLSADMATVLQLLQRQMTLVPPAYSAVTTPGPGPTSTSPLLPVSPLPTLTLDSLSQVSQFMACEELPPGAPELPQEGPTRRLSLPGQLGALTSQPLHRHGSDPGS

Take `CNC1CCN(c2ncc(-c3ccc(OC)c(O)c3)c(-c3ccc(C#N)c(F)c3)c2C#N)CC1` [Example 79, 4-(4-cyano-3-fluorophenyl)-5-(3-hydroxy-4-methoxyphenyl)-2-(4-(methylamino)piperidin-1-yl) nicotinonitrile hydrochloride]: the IC50 is over 10000 nM on CYP3A4, 0.272 nM in the series with NCI-H1417 cells, 4380 nM in series [1] and 0.3 ± 0.1 nM at LSD1.

For the compound `COc1ccc(-c2nc(CN[C@@H]3C[C@H]3c3ccc(F)cc3)cc(C(=O)N3CCN(S(C)(=O)=O)CC3)n2)cc1O` [Example 224], the IC50 amounted to 5540 nM on CYP3A4, 11.6 nM with NCI-H1417 cells, 5600 nM in series [1] and 25.7 nM on LSD1.

As for `Cc1noc2cc(-c3cnc(N4CCC(N)CC4)c(C#N)c3-c3ccc(C#N)c(F)c3)c(F)cc12` [Example 71, 2-(4-aminopiperidin-1-yl)-4-(4-cyano-3-fluorophenyl)-5-(5-fluoro-3-methylbenzo[d]isoxazol-6-yl)nicotinonitrile], the values for the IC50 at CYP3A4, with NCI-H1417 cells and at LSD1 were 4300 nM, 0.338 nM and 0.3 ± 0.2 nM, respectively.

As for `COc1ccc(-c2c(C#N)cc(N3CCC(N)CC3)nc2-c2ccc(C#N)c(F)c2)cc1O` [Example 273, 6-(4-aminopiperidin-1-yl)-2-(4-cyano-3-fluorophenyl)-3-(3-hydroxy-4-methoxyphenyl)pyridine-4-carbonitrile], the IC50 on CYP3A4 is over 10000 nM; with NCI-H1417 cells, 1.19 nM; on LSD1, 0.2 ± 0.05 nM.

Consider `COc1ccc(-c2c(O)cc(N3CCC(N)CC3)nc2-c2ccc(C#N)c(F)c2)cc1O` [Example 23, 4-(6-(4-aminopiperidin-1-yl)-4-hydroxy-3-(3-hydroxy-4-methoxyphenyl)pyridin-2-yl)-2-fluorobenzonitrile], for which the IC50 on CYP3A4 was 54200 nM; in the series on NCI-H1417 cells, 0.44 nM; in series [1], over 30000 nM; on LSD1, 0.18 ± 0.08 nM.

In the case of `COc1ccc(-c2c(-c3ccc(C#N)c(F)c3)nc(N3CC4CC3CC4N)n3ccnc23)cc1O` (centres unmarked) [Example 164, 4-(5-(5-amino-2-azabicyclo[2.2. 1]heptan-2-yl)-8-(3-hydroxy-4-methoxyphenyl)imidazolo[1,2-c]pyrimidin-7-yl)-2-fluorobenzonitrile hydrochloride], the IC50 on CYP3A4 was over 10000 nM; in the series with NCI-H1417 cells, 0.22 nM; at LSD1, 0.4 ± 0.2 nM.

As for `CS(=O)(=O)N1CCN(C(=O)c2cc(CN[C@@H]3C[C@H]3c3ccc(F)cc3)nc(-c3ccc(N4CCOCC4)cc3)n2)CC1` [Example 227], the IC50 was determined as 14100 nM on CYP3A4, 3.91 nM in the series on NCI-H1417 cells, 6290 nM in series [1] and 42.6 nM at LSD1.

On to `N#Cc1ccc(-c2nc(N3CCC(N)CC3)n3ccnc3c2-c2ccc(N3CCOCC3)cc2)cc1F` [Example 128, 4-(5-(4-aminopiperidin-1-yl)-8-(4-morpholinophenyl)imidazolo [1,2-c]pyrimidin-7-yl)-2-fluorobenzonitrile], for which the IC50 on CYP3A4 is over 50000 nM; in the series with NCI-H1417 cells, 6.46 nM; in series [1] it was 13700 nM; on LSD1 it was 4.19 ± 0.11 nM.

On to `COc1ccc(-c2c(-c3ccc(C#N)c(F)c3)nc(N3CC4CC3CC4N)n3ccnc23)cc1F` (centres unmarked) [Example 169, 4-(5-(5-amino-2-azabicyclo[2.2.1]heptane-2-yl)-8-(3-fluoro-4-methoxyphenyl)imidazolo[1,2-c]pyrimidin-7-yl)-2-fluorobenzonitrile hydrochloride], for which the figures for the IC50 on CYP3A4, in the series on NCI-H1417 cells and on LSD1 were over 10000 nM, 4 nM and 4.3 ± 0.9 nM, respectively.

On to `N#Cc1ccc(-c2c(-c3ccc(C(F)(F)F)c(O)c3)cnc(N3CCC(N)CC3)c2C#N)cc1F` [Example 70, 2-(4-aminopiperidin-1-yl)-4-(4-cyano-3-fluorophenyl)-5-(3-hydroxy-4-(trifluoromethyl)phenyl) nicotinonitrile hydrochloride], for which the IC50 on CYP3A4 came out at 8710 nM; in the series on NCI-H1417 cells it was 0.885 nM; on LSD1, 0.5 ± 0.3 nM.
